Laboratory results reported in patent publication US20190241535A1, “3-SUBSTITUTED CARBONYL-NAPHTHO[2,3-B]FURANE DERIVATIVE OR PHARMACEUTICALLY ACCEPTABLE SALT THEREOF” (Boston Biomedical, Inc., priority 2014, published 2019).
Values after ≈ are worked out from the molar mass of the structure shown. Where a name gives a salt, the structure may show the parent alone. Read-outs that look alike come from different tables or passages of the source.

What was measured:
Test 3: solubility test = type: physicochemical; conditions: kinetic from dmso stock, 1% DMSO, HPLC
Method: Each 15 μL of each test sample (10 mM DMSO solution) was dispensed into 4 Utubes on a 96 well rack. Then, each sample was evaporated to dryness with a rotary evaporator. 3 μL of DMSO was added to each dried sample to be re-dissolved. And, 300 μL of pH 7.4 buffer was added to the 2 wells and 300 μL of pH 1.2 buffer was added to the other 2 wells. After shaking each sample solution, the samples were still stood. Then, each sample solution was centrifuged to remove insoluble matter, and 100 μL of the supernatant was picked up on a 96 well plate. Separately, 2 μL of each test sample (10 mM DMSO solution) was dispensed on a 96 well plate, and diluted with 198 μL of 50% acetonitrile to prepare each 100 μM standard solution. Further, the 100 μM standard solution was diluted with 50% acetonitrile to prepare each 10 μM standard solution. The above test samples for the solubility test and the two kinds of the standard samples were analyzed with a HPLC. The solubility of each test sample was calculated as an area ratio per the standard solutions.

HT-29 cell [1] = test: Test 2: inhibition of forming cancer cell sphere (Sphere IC50); type: cell-based; conditions: Homo sapiens, 96 h, ultra-low attachment plate, serum-free sphere medium, 4 days, CellTiter-Glo
Method: (§1) HCT-116 cell, HT-29 cell, and FaDu cell were obtained from the American Type Culture Collection (ATCC). HCT-116 cell and HT-29 cell were cultivated at 37° C. in the presence of 5% CO2 using McCoy's 5a medium containing 10% fetal bovine serum (FBS), and 1% penicillin/streptomycin; and FaDu cell was cultivated at 37° C. in the presence of 5% CO2 using MEM containing 10% FBS, 1% non-essential amino acid, 1% sodium pyruvate, and 1% penicillin/streptomycin. Each of HCT-116 cell, HT-29 cell, and FaDu cell was seeded on 384 Wells Black Clear Bottom Ultra-Low Attachment Microplate (Corning Cat. No. 3827) in 350-800 cells/well, with DMEM/F12 medium containing 2% B27 supplement (GIBCO), 20 ng/mL epidermal growth factor (EGF) (peprotech), 10 ng/mL basic fibroblast growth factor (bFGF) (peprotech), 5 μg/mL insulin (Sigma), and 1% penicillin/streptomycin. Each test sample was added thereto to adjust the final concentration thereof in DMSO to 0.1% and the test wells were incubated for 4 days. And then, the viable cell count of each sample was measured using CellTiter-Glo® Luminescent Cell Viability Assay (Promega), and the concentration to inhibit the cell growth in each test sample by 50% was calculated (Sphere IC50 Value;μM).

FaDu cell [2] = test: as above; type: cell-based; conditions: Homo sapiens, 96 h, ultra-low attachment plate, serum-free sphere medium, 4 days, CellTiter-Glo
Method: as §1

HCT-116 cell [3] = test: as above; type: cell-based; conditions: Homo sapiens, 96 h, ultra-low attachment plate, serum-free sphere medium, 4 days, CellTiter-Glo
Method: as §1

HT-29 cell [4] = test: Test 1: growth inhibition in cancer cell (Bulk IC50); type: cell-based; conditions: Homo sapiens, 96 h, adherent culture, incubated 4 days, CellTiter-Glo
Method: (§2) HCT-116 cell, HT-29 cell, and FaDu cell were obtained from the American Type Culture Collection (ATCC). HCT-116 cell and HT-29 cell were cultivated at 37° C. in the presence of 5% CO2 using McCoy's 5a medium containing 10% fetal bovine serum (FBS), and 1% penicillin/streptomycin; and FaDu cell was cultivated at 37° C. in the presence of 5% CO2 using MEM containing 10% FBS, 1% non-essential amino acid, 1% sodium pyruvate, and 1% penicillin/streptomycin. Each cell was seeded on μClear-plate black 384 wells (Greiner bio-one Cat. No. 781091) in 300-600 cells/well, and then each test sample was added thereto to adjust the final concentration thereof in DMSO to 0.1% and the test wells were incubated for 4 days. And then, the viable cell count of each sample was measured using CellTiter-Glo® Luminescent Cell Viability Assay (Promega), and the concentration to inhibit the cell growth in each test sample by 50% was calculated (Bulk IC50 Value; μM).

FaDu cell [5] = test: as above; type: cell-based; conditions: Homo sapiens, 96 h, adherent culture, incubated 4 days, CellTiter-Glo
Method: as §2

HCT-116 cell [6] = test: as above; type: cell-based; conditions: Homo sapiens, 96 h, adherent culture, incubated 4 days, CellTiter-Glo
Method: as §2

[7] = aqueous buffer, pH 7.4 buffer, read-out: Solubility pH 7.4
[8] = simulated gastric fluid, pH 1.2 buffer, read-out: Solubility pH 1.2

| solubility (Test 3: solubility test; [7]) [µg/mL] | solubility (Test 3: solubility test; [8]) [µg/mL] | IC50 (HT-29 cell [1]) [nM] | IC50 (FaDu cell [2]) [nM] | IC50 (HCT-116 cell [3]) [nM] | IC50 (HT-29 cell [4]) [nM] | IC50 (FaDu cell [5]) [nM] | IC50 (HCT-116 cell [6]) [nM] | Structure (SMILES) |
| --- | --- | --- | --- | --- | --- | --- | --- | --- |
| 121 (≈ 342 µM) | 131 (≈ 371 µM) | 710 | 540 | 1800 | 3580 | 750 | 740 | CC(=O)c1oc2c(c1C(=O)N1CCOCC1)C(=O)c1ccccc1C2=O [Example 14, 2-Acetyl-3-(morpholine-4-carbonyl)naphtho[2,3-b]furan-4,9-dione] |
| 107 (≈ 344 µM) | 115 (≈ 369 µM) | 850 | 710 | 3360 | 710 | 560 | 590 | CC(=O)c1oc2c(c1C(=O)N(C)C)C(=O)c1ccccc1C2=O [Example 4, 2-Acetyl-N,N-dimethyl-4,9-dioxo-4,9-dihydronaphtho[2,3-b]furan-3-carboxamide] |
| < 0.1 | < 0.1 | 5840 | 4460 | 5430 | 5760 | 4470 | 5310 | CN(C)C(=O)c1c(-c2ccc(F)cc2)oc2c1C(=O)c1ccccc1C2=O [Example 11, 2-(4-Fluorophenyl)-N,N-dimethyl-4,9-dioxo-4,9-dihydronaphtho[2,3-b]furan-3-carboxamide] |
| 0.5 (≈ 1.68 µM) | 0.8 (≈ 2.68 µM) | 400 | 590 | 380 | 340 | 320 | 280 | COC(=O)c1c(C(C)=O)oc2c1C(=O)c1ccccc1C2=O [Example 2, Methyl 2-acetyl-4,9-dioxo-4,9-dihydronaphtho[2,3-b]furan-3-carboxylate] |
| 38 (≈ 113 µM) | 63 (≈ 187 µM) | 320 | 410 | 320 | 300 | 300 | 270 | CN(C)C(=O)c1c(C(F)(F)F)oc2c1C(=O)c1ccccc1C2=O [Example 21, N,N-dimethyl-4,9-dioxo-2-(trifluoromethyl)-4,9-dihydronaphtho[2,3-b]furan-3-carboxamide] |
| 127 | 152 | 600 | 660 | 3100 | 570 | 540 | 620 | CC(=O)c1oc2c(c1C(=O)N1CCN(C)CC1)C(=O)c1ccccc1C2=O [Example 5, 2-Acetyl-3-(4-methylpiperazine-1-carbonyl)naphtho[2,3-b]furan-4,9-dione hydrochloride] |

| Structure (SMILES) | solubility (Test 3: solubility test; [7]) [µg/mL] | solubility (Test 3: solubility test; [8]) [µg/mL] | IC50 (HT-29 cell [1]) [nM] | IC50 (FaDu cell [2]) [nM] | IC50 (HCT-116 cell [3]) [nM] | IC50 (HT-29 cell [4]) [nM] | IC50 (FaDu cell [5]) [nM] | IC50 (HCT-116 cell [6]) [nM] |
| --- | --- | --- | --- | --- | --- | --- | --- | --- |
| COC(=O)c1c(-c2cccnc2)oc2c1C(=O)c1ccccc1C2=O [Example 12, Methyl 4,9-dioxo-2-(pyridin-3-yl)-4,9-dihydronaphtho[2,3-b]furan-3-carboxylate] |  |  | > 10000 | 5790 | > 10000 | > 10000 | 2340 | 6960 |
| COC(=O)c1c(C(C)(OC)OC)oc2c1C(=O)c1ccccc1C2=O [Example 1, Methyl 2-(1,1-dimethoxyethyl)-4,9-dioxo-4,9-dihydronaphtho[2,3-b]furan-3-carboxylate] |  |  | 2180 | 2150 | 1730 | 2250 | 380 | 440 |
| COC(=O)c1c(C(F)(F)F)oc2c1C(=O)c1ccccc1C2=O [Example 6, Methyl 4,9-dioxo-2-(trifluoromethyl)-4,9-dihydronaphtho[2,3-b]furan-3-carboxylate] |  |  | 3050 | 3630 | 2830 | 2840 | 2610 | 2350 |
